“Also recorded” adds a separate entry of the source.
Legend:
[1] = target: DNase I (Bos taurus, UniProt P00639); test: DNase I activity after reducing/heat treatment, plasmid DNA degradation; type: biochemical; details: 20 mM reducing reagent in water; DNase I 0.4 units/μl; 60° C. for 20 minutes
Protocol: DNase I is commonly used to degrade contaminating DNA in RNA preparations. To test whether the inactivation method affected DNase I activity, DNase I (final concentration of 0.4 units/μl) was added to water containing 20 mM DTT, DTE or β-mercaptoethanol. The mixture was incubated at 60° C. for 20 minutes. After the heat treatment, the DNase I activity was tested by incubating the treated DNase I with plasmid DNA (0.2 μg/μl ) at 37° C. for one hour followed by electrophoresis in a 1% agarose gel.

[2] = pH 7.0; cited from earlier work
[3] = DTNB test of DTT reducing strength (absorbance at 412 nm); type: physicochemical
Excerpt: DTT has low redox potential (−0.33 volts at pH 7.0) and is capable of maintaining monothiols effectively in the reduced form and of reducing disulfides quantitatively (Cleland, 1964). DTT acts as a protective agent for free sulfhydryl groups. […] DTT's reducing activity can be accurately assayed using 5, 5′-dithiobis (2-nitrobenzoic acid) or DTNB (Cleland, 1964). The reduction of DTNB mediated by DTT generates a yellow color whose absorbance can be measured at 412 nm using a spectrophotometer. RNase A, RNase 1 and RNase T1 all contain disulfide bonds (Ryle and Anfinesen, 1957; Barnard, 1969) and, therefore, are susceptible to reduction.
FIG. 5. DTT is oxidized by incubating at 65° C. for 6 days. DTT was made to 100 mM in water and incubated at 65° C. for 6 days. Fresh DTT and the heated 100 mM were diluted in water to different concentrations and subjected to the DTNB test. Absorbance at 412 nm indicates the reducing strength of the DTT.
To assess the effect that the ribonuclease mixture has on the oxidation of DTT, the RNase mixture at 1 μg/ml was incubated with DTT at 0.05, 0.1, 0.15, 0.2 and 0.25 mM at 60° C. for 20 minutes. 0.1 ml of each sample was added to 0.8 ml of 0.1 M KPO4 (pH 7.7) and 0.1 ml DTNB in 0.1 KPO4 (pH 7.7). Samples which were not treated with heat were also subjected to the DTNB assay for comparison. The DTNB reaction mixtures were incubated at 21° C. for 10 minutes to allow the yellow color to develop. Absorbances were measured at 412 nm. The results were that there was no difference in the reactivity of the DTT whether it had been used to inactivate the RNase mixture or not.
DTT was made to 100 mM in water and incubated at 65° C. for 6 days. This material was diluted to 50, 100, 150, 200, 250 micromolar in water and then assayed for its reducing strength using the DTNB test described in Example 7 and compared to the same concentrations of DTT made fresh in water. The absorbance at 412 nm directly correlates with reducing strength. The greater the absorbance, the greater the reducing power.

[4] = target: T1, MMLV reverse transcriptase (Moloney murine leukemia virus, UniProt P03355); test: Reverse transcription reaction (RETROscript kit), dCTP[α-32P] incorporation; type: biochemical; details: 20 mM reducing reagent
T1 construct: purchased Ambion, Inc
Protocol: (§1) FIG. 2. […] Reverse transcriptions were performed using the RETROscript™ kit (Ambion, Inc.). Mouse total RNA in DEPC-treated water was reverse transcribed with either MMLV or AMV reverse transcriptase in the presence or absence of 20 mM DTT. dCTP[α^32P] was included in the reactions to measure the efficiency of reverse transcription. Following incubation at 42° C. for 1 h, 5 μl of each reaction was subjected to TCA precipitation to measure the amount of dCTP[α^32P] incorporated into cDNA by reverse transcription.
(§2) The reverse transcription reactions were performed using the RETROscript™ kit (Ambion, Inc.). The following were assembled with or without 20 mM of the reducing reagents in a final volume of 19 μl: dNTPs (0.5 mM each), oligo dT (5 μM), 0.4 μl dCTP[α-^32p] (3000 Ci/mmol), 10 mM Tris-HCl (pH 8.3): 50 mM KCl: 1.5 mM MgCl2, mouse brain total RNA (4 μg). The reaction mixtures were incubated at 65° C. for 10 minutes. 1 μl (100 units) of AMV or MMLV reverse transcriptase were added and then the reactions were incubated at 42° C. for 1 hour. Reverse transcription by either enzyme was not inhibited by DTT (FIG. 2) or by DTE or β-mercaptoethanol.

[5] = system: AMV reverse transcriptase; test: as above; type: biochemical; details: 20 mM reducing reagent
Protocol: as §1, §2

[6] = target: T2, RNase A (Bos taurus, UniProt P61823); test: RNase A inactivation, mouse total RNA on agarose formaldehyde gel; type: biochemical
T2 sequence (P61823 27-150): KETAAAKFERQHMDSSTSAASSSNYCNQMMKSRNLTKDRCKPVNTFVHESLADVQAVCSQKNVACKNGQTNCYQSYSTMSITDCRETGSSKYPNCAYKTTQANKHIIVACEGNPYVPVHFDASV
Protocol: The non-isotopic assay uses total RNA isolated from mouse as the substrate for the RNase mixture. […] A quantity of 4 μg of total RNA isolated from mouse liver or brain was dissolved in an aqueous solution, usually water or 1 mM sodium citrate (pH 6.6). The treated ribonuclease sample was added to the total RNA and then incubated at 37° C. for 1 or 16 hours, depending on the sensitivity desired for the assay. After incubation, the RNA was fractionated in a formaldehyde 1% agarose gel. The RNA was detected by staining with ethidium bromide and then illuminating the gel with ultraviolet light. The RNA fluoresces in the gel. Untreated total RNA was also fractionated as a control with the test samples for comparative purposes. […] Intact total RNA has two major bands produced by the 28S and 18S ribosomal RNA. […] RNase A, at 200 ng/ml instead of 10 μg/ml, was treated with or without 4 mM DTT in Boshes' solution A at 4° C. for 20 minutes. RNase A activity was then tested by incubating mouse liver total RNA with the treated RNase A at 37° C. for 60 minutes. The mouse RNA was then fractionated by electrophoresis in a 1% agarose formaldehyde gel. […] RNase A was diluted to 154 ng/ml in 1 mM sodium citrate (pH 6.4) or in Boshes' (1970) buffer A. DTT was added to the samples to 4 mM or 20 mM and then incubated at 4° C. or 60° C. for 20 minutes.

DNase I, sequence (P00639 23-282): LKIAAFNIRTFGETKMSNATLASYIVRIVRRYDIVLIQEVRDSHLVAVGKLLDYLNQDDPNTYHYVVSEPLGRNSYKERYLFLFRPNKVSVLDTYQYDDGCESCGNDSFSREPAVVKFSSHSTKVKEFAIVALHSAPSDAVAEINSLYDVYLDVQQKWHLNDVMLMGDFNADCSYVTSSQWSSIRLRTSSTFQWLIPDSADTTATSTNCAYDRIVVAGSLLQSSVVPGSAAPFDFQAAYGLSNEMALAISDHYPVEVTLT

O[C@H](CS)[C@H](O)CS [DTT, dithiothreitol]
DNase I activity after reducing/heat treatment [1]: not affected | redox potential [2]: −0.33 volts | stability of DTT reducing strength ([3]; DTT 100 mM in water incubated at 65° C. for 6 days): completely oxidized | reactivity of DTT after use to inactivate the RNase mixture vs non-reacted DTT ([3]; RNase mixture 1 μg/ml, DTT 0.05-0.25 mM, 60° C. for 20 minutes): no difference | loss of DTT reducing power with each heating step ([3]; sequential inactivations, 60° C. for 20 minutes): no detectable loss | inhibition of reverse transcription by MMLV reverse transcriptase [4]: does not inhibit; also recorded: not inhibited | inhibition of reverse transcription by AMV reverse transcriptase [5]: does not inhibit; also recorded: not inhibited | RNase A inactivation ([6]; RNase A 154 ng/ml, 4 mM DTT, 4° C. for 20 minutes): not inactivated | RNase A inactivation ([6]; RNase A 154 ng/ml, 4 mM DTT, 60° C. for 20 minutes): completely inactivated | RNase A inactivation ([6]; RNase A 154 ng/ml, 20 mM DTT, 4° C. for 20 minutes): not inactivated | RNase A inactivation ([6]; RNase A 154 ng/ml, 20 mM DTT, 60° C. for 20 minutes): completely inactivated | RNase A inactivation ([6]; RNase A 200 ng/ml, 4 mM DTT, Boshes' solution A, 4° C. for 20 minutes): not inactivated | RNase A inactivation ([6]; RNase A, 20 mM DTT, 60° C. for 20 minutes): completely inactivated

Reference: patent US6825340B2, “Methods and reagents for inactivating ribonucleases” (Ambion, Inc., priority 1998, dated 2004)
